Reference: ChEMBL document CHEMBL4402537, “Recent development of membrane-active molecules as antibacterial agents” (2019)
In brackets after ≈: the same amount, converted by molar mass.

Key:
Format in all cases: functional
Enterococcus faecalis = test: Antibacterial activity against Enterococcus faecalis ATCC 29212 after 18 to 20 hrs by CLSI based direct colony suspension method
Staphylococcus aureus [1] = test: Antibacterial activity against methicillin resistant Staphylococcus aureus DB57964/04 after 18 to 20 hrs by CLSI based direct colony suspension method
Staphylococcus aureus [2] = test: Antibacterial activity against methicillin resistant Staphylococcus aureus DM09808R after 18 to 20 hrs by CLSI based direct colony suspension method
Staphylococcus aureus [3] = test: Antibacterial activity against Staphylococcus aureus ATCC 29213 after 18 to 20 hrs by CLSI based direct colony suspension method
Staphylococcus aureus [4] = test: Antibacterial activity against methicillin resistant Staphylococcus aureus DM21455 after 18 to 20 hrs by CLSI based direct colony suspension method
Bacillus cereus = test: Antibacterial activity against Bacillus cereus ATCC 11778 after 18 to 20 hrs by CLSI based direct colony suspension method
Escherichia coli = test: Antibacterial activity against Escherichia coli after 10 hrs by broth microdilution assay
Staphylococcus aureus [5] = test: Antibacterial activity against Staphylococcus aureus after 10 hrs by broth microdilution assay
Klebsiella pneumoniae = test: Antibacterial activity against Klebsiella pneumoniae
Staphylococcus aureus [6] = test: Antibacterial activity against methicillin resistant Staphylococcus aureus
Acinetobacter baumannii = test: Antibacterial activity against Acinetobacter baumannii
Staphylococcus aureus [7] = test: Antibacterial activity against methicillin resistant Staphylococcus aureus clinical isolate

## COc1c(O)cc2oc3cc(O)c(CC=C(C)C)c(O)c3c(=O)c2c1CC=C(C)C [MANGOSTIN]
Enterococcus faecalis
  MIC: 0.78 to 1.56 mg/L (≈ 1.9 to 3.8 µM)
Staphylococcus aureus [1]
  MIC: 0.78 to 1.56 mg/L (≈ 1.9 to 3.8 µM)
Staphylococcus aureus [2]
  MIC: 0.78 to 1.56 mg/L (≈ 1.9 to 3.8 µM)
Staphylococcus aureus [3]
  MIC: 0.78 to 1.56 mg/L (≈ 1.9 to 3.8 µM)
Staphylococcus aureus [4]
  MIC: 0.78 to 1.56 mg/L (≈ 1.9 to 3.8 µM)
Bacillus cereus
  MIC: 0.78 to 1.56 mg/L (≈ 1.9 to 3.8 µM)

## CCCCCCCCCCCCNC(=O)C[N+](C)(C)CCCCCC[N+](C)(C)CC(=O)NCCCCCCCCCCCC
Escherichia coli
  MIC: 13 µM
Staphylococcus aureus [5]
  MIC: 10 µM

## CCCCCCCC(=O)N(CCCNC(=O)[C@@H](CCCCN)NC(=O)[C@H](N)CCCCN)CCCNC(=O)[C@@H](CCCCN)NC(=O)[C@H](N)CCCCN.O=C(O)C(F)(F)F.O=C(O)C(F)(F)F.O=C(O)C(F)(F)F.O=C(O)C(F)(F)F.O=C(O)C(F)(F)F.O=C(O)C(F)(F)F
Klebsiella pneumoniae
  MIC: 6.3 to 12.5 mg/L
Staphylococcus aureus [6]
  MIC: 6.3 to 12.5 mg/L
Acinetobacter baumannii
  MIC: 6.3 to 12.5 mg/L

## CCCCCCN(Cc1ccc(-c2ccc(CN(CCCCCC)C(=O)[C@@H](N)CCCCN)cc2)cc1)C(=O)[C@@H](N)CCCCN.O=C(O)C(F)(F)F.O=C(O)C(F)(F)F.O=C(O)C(F)(F)F.O=C(O)C(F)(F)F
Staphylococcus aureus [6]
  MIC: 3.1 mg/L
Staphylococcus aureus [7]
  MIC: 6.2 mg/L

## CCCCCCCCCCCCNC(=O)C[N+](C)(C)C
Escherichia coli
  MIC: 35 µM
Staphylococcus aureus [5]
  MIC: 43 µM

## CCCCCCCCCCCCCC(=O)N(CCCNC(=O)[C@H](N)CCCCN)CCCNC(=O)[C@H](N)CCCCN.O=C(O)C(F)(F)F.O=C(O)C(F)(F)F.O=C(O)C(F)(F)F.O=C(O)C(F)(F)F
Staphylococcus aureus [6]
  MIC: 3.1 to 6.3 mg/L
